Read-outs that look alike come from different tables or passages of the source.
Experiments:
[1] = molecular target: human CB1 receptor (hCB1) (Homo sapiens, UniProt P21554); test: cell-based; assay type: cell-based
Summary of the method: (§1)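 First, cells in IBMX-containing HEPES-buffered HBSS are raised to elevated cAMP with 2-8 μM NKH-477 for 30 min. Data are normalised to the forskolin and forskolin + 1 μM CP55,940 controls.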

rat CB2 receptor (rCB2) = molecular target: T1, rat CB2 receptor (rCB2) (Rattus norvegicus, UniProt Q9QZN9); test: cell-based; assay type: cell-based; details: for +/− RCB2: agonist or inverse agonist at rCB2
T1 sequence (Q9QZN9 1-360): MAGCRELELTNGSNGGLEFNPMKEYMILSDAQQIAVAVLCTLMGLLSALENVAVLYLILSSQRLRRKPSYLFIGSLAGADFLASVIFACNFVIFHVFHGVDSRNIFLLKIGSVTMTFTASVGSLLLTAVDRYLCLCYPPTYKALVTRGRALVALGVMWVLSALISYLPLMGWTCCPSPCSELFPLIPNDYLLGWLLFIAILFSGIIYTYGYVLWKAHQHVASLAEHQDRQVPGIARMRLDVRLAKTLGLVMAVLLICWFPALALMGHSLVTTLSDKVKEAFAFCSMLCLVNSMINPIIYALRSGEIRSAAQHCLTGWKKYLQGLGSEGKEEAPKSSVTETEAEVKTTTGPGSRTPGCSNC
Summary of the method: as §1

[2] = groups >100 nM-10 μM and >10 μM, cAMP, CHO-K1 hCB1, read-out: EC50 HCB1

Sequence of human CB1 receptor (hCB1) (P21554 whole entry): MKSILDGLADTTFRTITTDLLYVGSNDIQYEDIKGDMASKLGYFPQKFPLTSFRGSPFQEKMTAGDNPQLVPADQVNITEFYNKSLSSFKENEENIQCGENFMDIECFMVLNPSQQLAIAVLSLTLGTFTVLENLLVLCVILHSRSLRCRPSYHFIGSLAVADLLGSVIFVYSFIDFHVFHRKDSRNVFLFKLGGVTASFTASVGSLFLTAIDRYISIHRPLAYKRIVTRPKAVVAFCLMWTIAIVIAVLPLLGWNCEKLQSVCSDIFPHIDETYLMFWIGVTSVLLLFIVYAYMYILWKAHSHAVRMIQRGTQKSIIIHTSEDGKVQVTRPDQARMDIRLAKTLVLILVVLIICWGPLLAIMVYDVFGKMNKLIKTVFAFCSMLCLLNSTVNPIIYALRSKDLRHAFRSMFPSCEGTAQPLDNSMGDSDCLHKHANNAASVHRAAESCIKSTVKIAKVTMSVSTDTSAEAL

CC(C)CN1CCn2c(-c3ccccc3)nc(C(=O)N[C@H](C)C(C)(C)C)c2C1 [Compound 52, (R)-N-(3,3-dimethylbutan-2-yl)-7-isobutyl-3-phenyl-5,6,7,8-tetrahydroimidazo[1,5-a]pyrazine-1-carboxamide]
EC50 [1]: > 10000 nM
+/− RCB2 (rat CB2 receptor (rCB2)): −

CC(C)CN1CCn2c(-c3ccccc3)nc(C(=O)N[C@@H](C)C(C)(C)C)c2C1 [Compound 53, (S)-N-(3,3-dimethylbutan-2-yl)-7-isobutyl-3-phenyl-5,6,7,8-tetrahydroimidazo[1,5-a]pyrazine-1-carboxamide]
EC50 [1]: > 10000 nM
+/− RCB2 (rat CB2 receptor (rCB2)): −

CNC(=O)[C@@H](NC(=O)c1nc(-c2ccccc2)n2c1CN(CCC(C)(C)C)CC2)C(C)(C)C [Compound 54, (S)-N-(3,3-dimethyl-1-(methylamino)-1-oxobutan-2-yl)-7-(3,3-dimethylbutan)-3-phenyl-5,6,7,8-tetrahydroimidazo[1,5-a]pyrazine-1-carboxamide]
EC50 [1]: > 10000 nM
+/− RCB2 (rat CB2 receptor (rCB2)): −

CNC(=O)[C@@H](NC(=O)c1nc(-c2ccccc2)n2c1CN(CC(C)(C)C)CC2)C(C)(C)C [Compound 55, (S)-N-(3,3-dimethyl-1-(methylamino)-1-oxobutan-2-yl)-7-neopentyl-3-phenyl-5,6,7,8-tetrahydroimidazo[1,5-a]pyrazine-1-carboxamide]
EC50 [1]: > 10000 nM
+/− RCB2 (rat CB2 receptor (rCB2)): −

CNC(=O)[C@@H](NC(=O)c1nc(-c2ccccc2)n2c1CN(CC1CC1)CC2)C(C)(C)C [Compound 56, (S)-7-(cyclopropylmethyl)-N-(3,3-dimethyl-1-(methylamino)-1-oxobutan-2-yl)-3-phenyl-5,6,7,8-tetrahydroimidazo[1,5-a]pyrazine-1-carboxamide]
EC50 [1]: > 10000 nM
+/− RCB2 (rat CB2 receptor (rCB2)): −

CN1CCn2c(-c3ccccc3)nc(C(=O)NCC(C)(C)C)c2C1 [Compound 57, 7-methyl-N-neopentyl-3-phenyl-5,6,7,8-tetrahydroimidazo[1,5-a]pyrazine-1-carboxamide]
EC50 [1]: > 10000 nM
EC50 (rat CB2 receptor (rCB2)): > 10 µM

CC(C)CN1CCn2c(-c3ccccc3)nc(C(=O)NCC(C)(C)C)c2C1 [Compound 58, 7-isobutyl-N-neopentyl-3-phenyl-5,6,7,8-tetrahydroimidazo[1,5-a]pyrazine-1-carboxamide]
EC50 [1]: > 10000 nM
+/− RCB2 (rat CB2 receptor (rCB2)): −

CN1CCn2c(-c3ccccc3)nc(C(=O)N[C@H](CO)C(C)(C)C)c2C1 [Compound 59, (S)-N-(1-hydroxy-3,3-dimethylbutan-2-yl)-7-methyl-3-phenyl-5,6,7,8-tetrahydroimidazo[1,5-a]pyrazine-1-carboxamide]
EC50 [1]: > 10000 nM
EC50 (rat CB2 receptor (rCB2)): > 10 µM

CC(C)CN1CCn2c(-c3ccccc3)nc(C(=O)N[C@H](CO)C(C)(C)C)c2C1 [Compound 60, (S)-N-(1-hydroxy-3,3-dimethylbutan-2-yl)-7-isobutyl-3-phenyl-5,6,7,8-tetrahydroimidazo[1,5-a]pyrazine-1-carboxamide]
EC50 [1]: > 10000 nM
+/− RCB2 (rat CB2 receptor (rCB2)): −

CNC(=O)[C@@H](NC(=O)c1nc(-c2ccccc2)n2c1CN(Cc1ccccc1)CC2)C(C)(C)C [Compound 61, (S)-7-benzyl-N-(3,3-dimethyl-1-(methylamino)-1-oxobutan-2-yl)-3-phenyl-5,6,7,8-tetrahydroimidazo[1,5-a]pyrazine-1-carboxamide]
EC50 [1]: > 10000 nM
EC50 (rat CB2 receptor (rCB2)): > 10 µM

CNC(=O)[C@@H](NC(=O)c1nc(-c2ccccc2)n2c1CN(Cc1cncnc1)CC2)C(C)(C)C [Compound 62, (S)-N-(3,3-dimethyl-1-(methylamino)-1-oxobutan-2-yl)-3-phenyl-7-(pyrimidin-5-ylmethyl)-5,6,7,8-tetrahydroimidazo[1,5-a]pyrazine-1-carboxamide]
EC50 [1]: > 10000 nM
+/− RCB2 (rat CB2 receptor (rCB2)): −

CNC(=O)[C@@H](NC(=O)c1nc(-c2ccccc2)n2c1CN(Cc1cccnc1)CC2)C(C)(C)C [Compound 63, (S)-N-(3,3-dimethyl-1-(methylamino)-1-oxobutan-2-yl)-3-phenyl-7-(pyridin-3-ylmethyl)-5,6,7,8-tetrahydroimidazo[1,5-a]pyrazine-1-carboxamide]
EC50 [1]: > 10000 nM
EC50 (rat CB2 receptor (rCB2)): > 10 µM

CNC(=O)[C@@H](NC(=O)c1nc(-c2ccccc2)n2c1CN(Cc1ccco1)CC2)C(C)(C)C [Compound 64, (S)-N-(3,3-dimethyl-1-(methylamino)-1-oxobutan-2-yl)-7-(furan-2-ylmethyl)-3-phenyl-5,6,7,8-tetrahydroimidazo[1,5-a]pyrazine-1-carboxamide]
EC50 [1]: > 10000 nM
+/− RCB2 (rat CB2 receptor (rCB2)): −

CNC(=O)[C@@H](NC(=O)c1nc(-c2ccccc2)n2c1CN(Cc1ccnn1C)CC2)C(C)(C)C [Compound 65, (S)-N-(3,3-dimethyl-1-(methylamino)-1-oxobutan-2-yl)-7-((1-methyl-1H-pyrazol-5-yl)methyl)-3-phenyl-5,6,7,8-tetrahydroimidazo[1,5-a]pyrazine-1-carboxamide]
EC50 [1]: > 10000 nM
EC50 (rat CB2 receptor (rCB2)): > 10 µM

CNC(=O)[C@@H](NC(=O)c1nc(-c2ccccc2)n2c1CN(Cc1cnn(C)c1)CC2)C(C)(C)C [Compound 66, (S)-N-(3,3-dimethyl-1-(methylamino)-1-oxobutan-2-yl)-7-((1-methyl-1H-pyrazol-4-yl)methyl)-3-phenyl-5,6,7,8-tetrahydroimidazo[1,5-a]pyrazine-1-carboxamide]
EC50 [1]: > 10000 nM
+/− RCB2 (rat CB2 receptor (rCB2)): +

CN1CCn2c(-c3ccccc3)nc(C(=O)N[C@@H](CO)C(C)(C)C)c2C1 [Compound 67, (R)-N-(1-hydroxy-3,3-dimethylbutan-2-yl)-7-methyl-3-phenyl-5,6,7,8-tetrahydroimidazo[1,5-a]pyrazine-1-carboxamide]
EC50 [1]: > 10000 nM
EC50 (rat CB2 receptor (rCB2)): > 10 µM

CC(C)CN1CCn2c(-c3ccccc3)nc(C(=O)N[C@@H](CO)C(C)(C)C)c2C1 [Compound 68, (R)-N-(1-hydroxy-3,3-dimethylbutan-2-yl)-7-isobutyl-3-phenyl-5,6,7,8-tetrahydroimidazo[1,5-a]pyrazine-1-carboxamide]
EC50 [1]: > 10000 nM
+/− RCB2 (rat CB2 receptor (rCB2)): −

CN1CCn2c(-c3ccccc3)nc(C(=O)N3CCOCC3)c2C1 [Compound 69, (7-methyl-3-phenyl-5,6,7,8-tetrahydroimidazo[1,5-a]pyrazin-1-yl)(morpholino)methanone]
EC50 [1, 2]: > 10000 nM
+/− RCB2 (rat CB2 receptor (rCB2)): −

CC(C)CN1CCn2c(-c3ccccc3)nc(C(=O)N3CCOCC3)c2C1 [Compound 70, (7-isobutyl-3-phenyl-5,6,7,8-tetrahydroimidazo[1,5-a]pyrazin-1-yl)(morpholino)methanone]
EC50 [1, 2]: > 10000 nM
+/− RCB2 (rat CB2 receptor (rCB2)): −

CNC(=O)[C@@H](NC(=O)c1nc(-c2ccccc2)n2c1CN(Cc1cccn1C)CC2)C(C)(C)C [Compound 71, (S)-N-(3,3-dimethyl-1-(methylamino)-1-oxobutan-2-yl)-7-((1-methyl-1H-pyrrol-2-yl)methyl)-3-phenyl-5,6,7,8-tetrahydroimidazo[1,5-a]pyrazine-1-carboxamide]
EC50 [1]: > 10000 nM
+/− RCB2 (rat CB2 receptor (rCB2)): −

CNC(=O)[C@@H](NC(=O)c1nc(-c2ccccc2)n2c1CN(Cc1nccs1)CC2)C(C)(C)C [Compound 72, (S)-N-(3,3-dimethyl-1-(methylamino)-1-oxobutan-2-yl)-3-phenyl-7-(thiazol-2-ylmethyl)-5,6,7,8-tetrahydroimidazo[1,5-a]pyrazine-1-carboxamide]
EC50 [1]: > 10000 nM
EC50 (rat CB2 receptor (rCB2)): > 10 µM

CNC(=O)[C@@H](NC(=O)c1nc(-c2csc3ccccc23)n2c1CN(C)CC2)C(C)(C)C [Compound 75, (S)-3-(benzo[b]thiophen-3-yl)-N-(3,3-dimethyl-1-(methylamino)-1-oxobutan-2-yl)-7-methyl-5,6,7,8-tetrahydroimidazo[1,5-a]pyrazine-1-carboxamide]
EC50 [1]: > 10000 nM
+/− RCB2 (rat CB2 receptor (rCB2)): +

CNC(=O)[C@@H](NC(=O)c1nc(-c2ccsc2)n2c1CN(Cc1cncnc1)CC2)C(C)(C)C [Compound 76, (S)-N-(3,3-dimethyl-1-(methylamino)-1-oxobutan-2-yl)-7-(pyrimidin-5-ylmethyl)-3-(thiophen-3-yl)-5,6,7,8-tetrahydroimidazo[1,5-a]pyrazine-1-carboxamide]
EC50 [1]: > 10000 nM
+/− RCB2 (rat CB2 receptor (rCB2)): +

CNC(=O)[C@H](C)NC(=O)c1nc(-c2ccccc2)n2c1CN(Cc1cncnc1)CC2 [Compound 77, (S)-N-(1-(methylamino)-1-oxopropan-2-yl)-3-phenyl-7-(pyrimidin-5-ylmethyl)-5,6,7,8-tetrahydroimidazo[1,5-a]pyrazine-1-carboxamide]
EC50 [1]: > 10000 nM
EC50 (rat CB2 receptor (rCB2)): > 10 µM

CN1CCn2c(-c3ccccc3)nc(C(=O)N[C@H](C(=O)N(C)C)C(C)(C)C)c2C1 [Compound 79, (S)-N-(1-(dimethylamino)-3,3-dimethyl-1-oxobutan-2-yl)-7-methyl-3-phenyl-5,6,7,8-tetrahydroimidazo[1,5-a]pyrazine-1-carboxamide]
EC50 [1]: > 10000 nM
+/− RCB2 (rat CB2 receptor (rCB2)): −

CC(C)CN1CCn2c(-c3ccccc3)nc(C(=O)N[C@H](C(=O)N(C)C)C(C)(C)C)c2C1 [Compound 80, (S)-N-(1-(dimethylamino)-3,3-dimethyl-1-oxobutan-2-yl)-7-isobutyl-3-phenyl-5,6,7,8-tetrahydroimidazo[1,5-a]pyrazine-1-carboxamide]
EC50 [1]: > 10000 nM
+/− RCB2 (rat CB2 receptor (rCB2)): −
